Reference: ChEMBL document CHEMBL3864146, “5-Alkyloxytryptamines are membrane-targeting, broad-spectrum antibiotics” (Bioorg Med Chem Lett, 2016)
≈ marks a conversion by molar mass, not a printed value.

Tests used:
[1] = tested on: Bacillus subtilis; assay: Antibacterial activity against Bacillus subtilis 168 after 16 to 18 hrs by micro-dilution method; assay type: functional; conditions: subsp. subtilis str. 168
[2] = tested on: Escherichia coli; assay: Adjuvant activity assessed as potentiation of rifampicin-induced antibacterial activity against Escherichia coli BW25113 at 0.25 times MIC after 16 to 18 hrs by checkerboard assay (reference value: 8 ng/ml); assay type: functional
[3] = tested on: Escherichia coli; assay: Adjuvant activity assessed as potentiation of chloramphenicol-induced antibacterial activity against Escherichia coli BW25113 at 0.5 times MIC after 16 to 18 hrs by checkerboard assay (reference value: 8 ng/ml); assay type: functional
[4] = tested on: Vibrio cholerae; assay: Antibacterial activity against Vibrio cholerae after 16 to 18 hrs by micro-dilution method; assay type: functional
[5] = tested on: Klebsiella pneumoniae; assay: Antibacterial activity against Klebsiella pneumoniae after 16 to 18 hrs by micro-dilution method; assay type: functional
[6] = tested on: Escherichia coli; assay: Adjuvant activity assessed as potentiation of tetracycline-induced antibacterial activity against Escherichia coli BW25113 at 0.5 times MIC after 16 to 18 hrs by checkerboard assay (reference value: 2 ng/ml); assay type: functional
[7] = tested on: Escherichia coli; assay: Adjuvant activity assessed as potentiation of rifampicin-induced antibacterial activity against Escherichia coli BW25113 at 0.5 times MIC after 16 to 18 hrs by checkerboard assay (reference value: 8 ng/ml); assay type: functional
[8] = tested on: Escherichia coli; assay: Adjuvant activity assessed as potentiation of ciprofloxacin-induced antibacterial activity against Escherichia coli BW25113 at 0.5 times MIC after 16 to 18 hrs by checkerboard assay (reference value: 13 ng/ml); assay type: functional
[9] = tested on: Pseudomonas aeruginosa; assay: Antibacterial activity against Pseudomonas aeruginosa after 16 to 18 hrs by micro-dilution method; assay type: functional
[10] = Cytotoxicity against HEK cells assessed as cell viability at 0.65 ug/ml after 24 hrs by CellTiter-Glo assay relative to control; assay type: toxicity, cell-based, HEK293; conditions: human, read-out: Activity
[11] = Cytotoxicity against HEK cells assessed as cell viability at 2.6 ug/ml after 48 hrs by CellTiter-Glo assay relative to control; assay type: toxicity, cell-based, HEK293; conditions: human, read-out: Activity
[12] = Cytotoxicity against HEK cells assessed as cell viability at 1.3 ug/ml after 24 hrs by CellTiter-Glo assay relative to control; assay type: toxicity, cell-based, HEK293; conditions: human, read-out: Activity
[13] = tested on: Salmonella typhimurium; assay: Antibacterial activity against Salmonella typhimurium after 16 to 18 hrs by micro-dilution method; assay type: functional, Salmonella enterica subsp. enterica serovar Typhimurium; conditions: Salmonella enterica
[14] = tested on: Morganella morganii; assay: Antibacterial activity against Morganella morganii after 16 to 18 hrs by micro-dilution method; assay type: functional
[15] = tested on: Shigella boydii; assay: Antibacterial activity against Shigella boydii after 16 to 18 hrs by micro-dilution method; assay type: functional
[16] = Cytotoxicity against HEK cells assessed as cell viability at 1.3 ug/ml after 48 hrs by CellTiter-Glo assay relative to control; assay type: toxicity, cell-based, HEK293; conditions: human, read-out: Activity
[17] = Cytotoxicity against HEK cells assessed as cell viability at 0.65 ug/ml after 48 hrs by CellTiter-Glo assay relative to control; assay type: toxicity, cell-based, HEK293; conditions: human, read-out: Activity
[18] = tested on: Staphylococcus aureus; assay: Antibacterial activity against Staphylococcus aureus after 16 to 18 hrs by micro-dilution method; assay type: functional
[19] = Cytotoxicity against HEK cells assessed as cell viability at 2.6 ug/ml after 24 hrs by CellTiter-Glo assay relative to control; assay type: toxicity, cell-based, HEK293; conditions: human, read-out: Activity
[20] = tested on: Edwardsiella tarda; assay: Antibacterial activity against Edwardsiella tarda after 16 to 18 hrs by micro-dilution method; assay type: functional
[21] = tested on: Escherichia coli; assay: Adjuvant activity assessed as potentiation of chloramphenicol-induced antibacterial activity against Escherichia coli BW25113 at 0.25 times MIC after 16 to 18 hrs by checkerboard assay (reference value: 8 ng/ml); assay type: functional
[22] = tested on: Escherichia coli; assay: Antibacterial activity against Escherichia coli BW25113 after 16 to 18 hrs by micro-dilution method; assay type: functional
[23] = tested on: Escherichia coli; assay: Adjuvant activity assessed as potentiation of ciprofloxacin-induced antibacterial activity against Escherichia coli BW25113 at 0.25 times MIC after 16 to 18 hrs by checkerboard assay (reference value: 13 ng/ml); assay type: functional
[24] = tested on: Escherichia coli; assay: Antibacterial activity against tolC-deficient Escherichia coli BW25113 after 16 to 18 hrs by micro-dilution method; assay type: functional
[25] = tested on: Acinetobacter baumannii; assay: Antibacterial activity against Acinetobacter baumannii after 16 to 18 hrs by micro-dilution method; assay type: functional
[26] = tested on: Escherichia coli; assay: Adjuvant activity assessed as potentiation of tetracycline-induced antibacterial activity against Escherichia coli BW25113 at 0.25 times MIC after 16 to 18 hrs by checkerboard assay (reference value: 2 ng/ml); assay type: functional
[27] = tested on: Klebsiella aerogenes; assay: Antibacterial activity against Enterobacter aerogenes after 16 to 18 hrs by micro-dilution method; assay type: functional
[28] = Cytotoxicity against HEK cells assessed as cell viability at 14 ug/ml after 48 hrs by CellTiter-Glo assay relative to control; assay type: toxicity, cell-based, HEK293; conditions: human, read-out: Activity
[29] = Cytotoxicity against HEK cells assessed as cell viability at 14 ug/ml after 24 hrs by CellTiter-Glo assay relative to control; assay type: toxicity, cell-based, HEK293; conditions: human, read-out: Activity
[30] = Cytotoxicity against HEK cells assessed as cell viability at 6.9 ug/ml after 48 hrs by CellTiter-Glo assay relative to control; assay type: toxicity, cell-based, HEK293; conditions: human, read-out: Activity
[31] = tested on: Escherichia coli; assay: Induction of membrane permeabilization in Escherichia coli BW25113 at MIC after 15 mins by propidium iodide staining-based fluorescence microplate reader method relative to 50% ethanol; assay type: functional
[32] = Cytotoxicity against HEK cells assessed as cell viability at 3.5 ug/ml after 48 hrs by CellTiter-Glo assay relative to control; assay type: toxicity, cell-based, HEK293; conditions: human, read-out: Activity
[33] = Cytotoxicity against HEK cells assessed as cell viability at 6.9 ug/ml after 24 hrs by CellTiter-Glo assay relative to control; assay type: toxicity, cell-based, HEK293; conditions: human, read-out: Activity
[34] = Cytotoxicity against HEK cells assessed as cell viability at 3.5 ug/ml after 24 hrs by CellTiter-Glo assay relative to control; assay type: toxicity, cell-based, HEK293; conditions: human, read-out: Activity
[35] = tested on: Staphylococcus aureus; assay: Adjuvant activity assessed as potentiation of tetracycline-induced antibacterial activity against Staphylococcus aureus at 1.6 ug/ml after 16 to 18 hrs by checkerboard assay (reference value: 0.125 ug/ml); assay type: functional
[36] = Cytotoxicity against HEK cells assessed as cell viability at 3.2 ug/ml after 48 hrs by CellTiter-Glo assay relative to control; assay type: toxicity, cell-based, HEK293; conditions: human, read-out: Activity
[37] = Cytotoxicity against HEK cells assessed as cell viability at 1.6 ug/ml after 24 hrs by CellTiter-Glo assay relative to control; assay type: toxicity, cell-based, HEK293; conditions: human, read-out: Activity
[38] = tested on: Klebsiella pneumoniae; assay: Adjuvant activity assessed as potentiation of tetracycline-induced antibacterial activity against Klebsiella pneumoniae at 3.2 ug/ml after 16 to 18 hrs by checkerboard assay (reference value: 2 ug/ml); assay type: functional
[39] = tested on: Acinetobacter baumannii; assay: Adjuvant activity assessed as potentiation of tetracycline-induced antibacterial activity against Acinetobacter baumannii at 3.2 ug/ml after 16 to 18 hrs by checkerboard assay (reference value: 1 ug/ml); assay type: functional
[40] = tested on: Pseudomonas aeruginosa; assay: Adjuvant activity assessed as potentiation of tetracycline-induced antibacterial activity against Pseudomonas aeruginosa at 3.2 ug/ml after 16 to 18 hrs by checkerboard assay (reference value: 32 ug/ml); assay type: functional
[41] = Cytotoxicity against HEK cells assessed as cell viability at 0.8 ug/ml after 24 hrs by CellTiter-Glo assay relative to control; assay type: toxicity, cell-based, HEK293; conditions: human, read-out: Activity
[42] = Cytotoxicity against HEK cells assessed as cell viability at 0.8 ug/ml after 48 hrs by CellTiter-Glo assay relative to control; assay type: toxicity, cell-based, HEK293; conditions: human, read-out: Activity
[43] = Cytotoxicity against HEK cells assessed as cell viability at 3.2 ug/ml after 24 hrs by CellTiter-Glo assay relative to control; assay type: toxicity, cell-based, HEK293; conditions: human, read-out: Activity
[44] = tested on: Salmonella typhimurium; assay: Adjuvant activity assessed as potentiation of tetracycline-induced antibacterial activity against Salmonella typhimurium at 3.2 ug/ml after 16 to 18 hrs by checkerboard assay (reference value: 1 ug/ml); assay type: functional, Salmonella enterica subsp. enterica serovar Typhimurium; conditions: Salmonella enterica
[45] = Cytotoxicity against HEK cells assessed as cell viability at 1.6 ug/ml after 48 hrs by CellTiter-Glo assay relative to control; assay type: toxicity, cell-based, HEK293; conditions: human, read-out: Activity

Row | SMILES | MIC [1] | MIC [2] | MIC [3] | MIC [4] | MIC [5] | MIC [6] | MIC [7] | MIC [8] | MIC [9] | MIC [13] | MIC [14] | MIC [15] | MIC [18] | MIC [20] | MIC [21] | MIC [22] | MIC [23] | MIC [24] | MIC [25] | MIC [26] | other results
1 | CCCCCCCCCOc1cccc(CCN)c1 | 0.66 µg/mL (≈ 2.51 µM) | 0.004 µg/mL | 0.004 µg/mL | 5.3 µg/mL (≈ 20.1 µM) | 5.3 µg/mL (≈ 20.1 µM) | 0.001 µg/mL | 0.002 µg/mL | 0.025 µg/mL | 21 µg/mL (≈ 79.7 µM) | 5.3 µg/mL (≈ 20.1 µM) | 11 µg/mL (≈ 41.8 µM) | 5.3 µg/mL (≈ 20.1 µM) | 5.3 µg/mL (≈ 20.1 µM) | 5.3 µg/mL (≈ 20.1 µM) | 0.008 µg/mL | 5.3 µg/mL (≈ 20.1 µM) | 0.025 µg/mL | 2.6 µg/mL (≈ 9.87 µM) | 5.3 µg/mL (≈ 20.1 µM) | 0.002 µg/mL | viability at 24 h, 0.65 ug/ml [10]: 72.7%; viability at 48 h, 2.6 ug/ml [11]: 1.8%; viability at 24 h, 1.3 ug/ml [12]: 60.5%; viability at 48 h, 1.3 ug/ml [16]: 31%; viability at 48 h, 0.65 ug/ml [17]: 58.1%; viability at 24 h, 2.6 ug/ml [19]: 3.4%; MIC [27]: 5.3 µg/mL (≈ 20.1 µM)
2 | CCCCCCCCCCCCOc1ccc2[nH]cc(CCN)c2c1.Cl | 1.7 µg/mL | 0.001 µg/mL | 0.0005 µg/mL | 28 µg/mL | > 110 µg/mL | 0.00025 µg/mL | 0.00025 µg/mL | 0.0008 µg/mL | > 110 µg/mL | 28 µg/mL | > 110 µg/mL | 14 µg/mL | 3.4 µg/mL | > 110 µg/mL | 0.001 µg/mL | 26 µg/mL | 0.013 µg/mL | 6.9 µg/mL | 28 µg/mL | 0.001 µg/mL | viability at 48 h, 14 ug/ml [28]: 0.2%; viability at 24 h, 14 ug/ml [29]: 1.5%; viability at 48 h, 6.9 ug/ml [30]: 2.6%; Activity [31]: 10%; viability at 48 h, 3.5 ug/ml [32]: 13.4%; MIC [27]: > 110 µg/mL; viability at 24 h, 6.9 ug/ml [33]: 10.4%; viability at 24 h, 3.5 ug/ml [34]: 26%
3 | CCCCCCCCCCOc1ccc2[nH]cc(CCN)c2c1.Cl | 1.6 µg/mL | 0.008 µg/mL | 0.002 µg/mL | 6.3 µg/mL | 6.3 µg/mL | 0.00025 µg/mL | 0.001 µg/mL | 0.013 µg/mL | > 101 µg/mL | 6.3 µg/mL | 101 µg/mL | 3.2 µg/mL | 3.2 to 6.3 µg/mL | 25 µg/mL | 0.004 µg/mL | 6.3 µg/mL | 0.013 µg/mL | 3.2 µg/mL | 6.3 µg/mL | 0.001 µg/mL | MIC [35]: 0.001 µg/mL; viability at 48 h, 3.2 ug/ml [36]: 2%; viability at 24 h, 1.6 ug/ml [37]: 29.6%; Activity [31]: 83%; MIC [38]: 2 µg/mL; MIC [39]: 0.25 µg/mL; MIC [40]: 16 µg/mL; viability at 24 h, 0.8 ug/ml [41]: 59.7%; viability at 48 h, 0.8 ug/ml [42]: 39.1%; viability at 24 h, 3.2 ug/ml [43]: 13.4%; MIC [44]: 0.016 µg/mL; MIC [27]: 13 µg/mL; viability at 48 h, 1.6 ug/ml [45]: 17%
